This note sets out measurements from patent US8232406B2, “c-MET protein kinase inhibitors” (Vertex Pharmaceuticals Incorporated, priority 2006, dated 2012).

Each structure is given as a SMILES string.

In this test the target is c-MET (Homo sapiens, UniProt P08581). Nature of the test: Ki determination for the inhibition of c-MET (standard radiometric 33P-ATP kinase assay, polyE4Y substrate). Format: biochemical. To be noted: 1.0 nM c-Met, 35 μM ATP, 0.5 mg/mL polyE4Y, 20 min; competitive tight-binding fit. In a few lines: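 Radiometric assay of 33P transfer from 33P-ATP (35 μM) to polyE4Y (0.5 mg/mL) by 1.0 nM c-Met in 100 mM HEPES pH 7.5, 10 mM MgCl2, 25 mM NaCl, 0.01% BSA, 1 mM DTT. TCA-quenched after 20 min, filter-captured, scintillation-counted; Ki fitted to a competitive tight-binding model.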
Sequence of c-MET (P08581 25-1390): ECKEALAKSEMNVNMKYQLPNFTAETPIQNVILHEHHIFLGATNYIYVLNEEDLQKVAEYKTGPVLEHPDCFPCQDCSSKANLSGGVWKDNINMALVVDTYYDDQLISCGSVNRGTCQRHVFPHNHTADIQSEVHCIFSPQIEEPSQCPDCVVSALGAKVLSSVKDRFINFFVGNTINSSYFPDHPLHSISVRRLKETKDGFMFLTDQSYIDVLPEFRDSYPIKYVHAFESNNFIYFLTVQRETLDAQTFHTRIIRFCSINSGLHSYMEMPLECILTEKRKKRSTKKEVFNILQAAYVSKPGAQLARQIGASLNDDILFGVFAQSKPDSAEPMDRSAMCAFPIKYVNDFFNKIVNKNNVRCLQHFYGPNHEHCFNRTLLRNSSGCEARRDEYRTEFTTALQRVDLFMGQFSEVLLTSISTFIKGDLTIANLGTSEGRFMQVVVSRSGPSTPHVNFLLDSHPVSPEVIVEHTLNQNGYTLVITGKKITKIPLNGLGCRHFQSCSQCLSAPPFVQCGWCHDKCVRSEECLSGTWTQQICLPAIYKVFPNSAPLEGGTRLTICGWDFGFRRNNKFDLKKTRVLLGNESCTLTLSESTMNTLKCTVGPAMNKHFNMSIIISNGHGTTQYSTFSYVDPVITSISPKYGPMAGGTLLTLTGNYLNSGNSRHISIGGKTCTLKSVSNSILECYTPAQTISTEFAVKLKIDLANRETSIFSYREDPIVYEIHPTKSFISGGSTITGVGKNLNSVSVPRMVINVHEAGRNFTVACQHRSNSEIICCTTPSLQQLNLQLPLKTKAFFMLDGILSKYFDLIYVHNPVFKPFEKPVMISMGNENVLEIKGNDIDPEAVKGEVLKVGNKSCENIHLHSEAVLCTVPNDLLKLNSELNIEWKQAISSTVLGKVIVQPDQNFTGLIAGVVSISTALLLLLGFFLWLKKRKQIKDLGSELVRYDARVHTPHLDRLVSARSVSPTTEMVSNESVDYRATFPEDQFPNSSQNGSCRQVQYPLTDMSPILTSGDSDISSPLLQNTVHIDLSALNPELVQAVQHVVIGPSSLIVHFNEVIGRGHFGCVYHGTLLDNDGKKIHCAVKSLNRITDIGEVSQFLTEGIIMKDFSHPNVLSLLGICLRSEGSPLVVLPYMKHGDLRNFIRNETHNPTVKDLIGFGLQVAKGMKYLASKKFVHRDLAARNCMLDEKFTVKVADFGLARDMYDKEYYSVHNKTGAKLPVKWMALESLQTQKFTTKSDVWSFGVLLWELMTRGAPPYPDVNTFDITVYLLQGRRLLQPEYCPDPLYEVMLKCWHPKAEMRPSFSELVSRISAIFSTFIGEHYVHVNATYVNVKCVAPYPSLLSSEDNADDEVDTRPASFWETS
In turn, `Nc1ncc(-c2ccc(N3CCCC3=O)cc2)cc1-c1nnnn1-c1cccc(F)c1F` [I-A-189] displayed a Ki of at most 100 nM.
Next, `Nc1ncc(-c2ccc3c(c2)CNCC3)cc1-c1nnnn1-c1cccc(F)c1F` [I-A-456]: at most 100 nM.
Next, `Nc1ncc(-c2cccs2)cc1-c1nnnn1-c1cccc(F)c1F` [I-A-487]: at most 100 nM; `Nc1ncc(-c2cncs2)cc1-c1nnnn1-c1cccc(F)c1F` [I-A-540]: at most 100 nM.
Regarding `CN1CCN(c2ccc(-c3cnc(N)c(-c4nnnn4-c4cccc(Cl)c4Cl)c3)cc2)CC1` [I-A-85], the Ki was at most 100 nM.
`Nc1ncc(-c2ccc(CN3CCOCC3)cc2)nc1-c1nnnn1-c1cccc(F)c1F` [I-A-51]: the Ki is at most 100 nM.
The compound `CC(=O)Nc1ccc(-c2cnc(N)c(-c3nnnn3-c3cc(F)ccc3F)c2)cc1` [I-A-581] came in with a Ki of 100 to 1000 nM.
`CN(C)c1ccc(-c2cnc(N)c(-c3nnnn3-c3cccc(F)c3F)c2)cc1` [I-A-234] showed a Ki of at most 100 nM.
The compound `Nc1ncc(C2=CCN(C(=O)C3CC3)CC2)cc1-c1nnnn1-c1cccc(F)c1F` [I-A-523] returned a Ki of at most 100 nM.
In turn, `Nc1ncc(-c2cccc(CO)c2)cc1-c1nnnn1-c1cccc(F)c1F` [I-A-231] displayed a Ki of at most 100 nM.
Consider `Nc1ncc(-c2ccc(N3CCCC3)nc2)nc1-c1nnc(O)n1-c1cccc(F)c1F` [I-A-18], for which the Ki was in the range of 100 to 1000 nM.

What is called Ki is a measure of affinity in units of concentration, obtained from inhibition or displacement.
